Tests used:
Type in all cases: in vivo
[1] = system: Digitaria sanguinalis (DIGSA); test: Pre-emergence herbicidal action; settings: 320 g/ha, visual scoring after about 3 weeks vs untreated controls, 100% = plants have died
Text: (§1) The abbreviations used here have the following meanings: • ABUTH Abutilon theophrasti • AMARE Amaranlhus retroflexus • CYPES Cyperus serotinus • ECHCGEchinocloa crus galli • LOLRI Lolium rigidum Gaudin • PHBPU Pharbitis purpurcum • SETVI Setaria viridis • VERPE Veronica persica • ALOMY Alopccurus myosuroides • AVEFA Avena fatua • DIGSA Digitaria sanguinalis • LOLMU Lolium multiflorum • MATIN Matricaria inodora • POLCO Polygonum convolvulus • STEME Stellaria media • VIOTR Viola tricolor
(§2) Seeds of monocotyledonous and dicotyledonous weed plants and crop plants are placed in plastic or organic plant pots and covered with soil. The compounds of the invention, formulated in the form of wettable powders (WP) or as emulsion concentrates (EC), are then applied onto the surface of the covering soil as aqueous suspension or emulsion with addition of 0.5% additive at a water application rate of 600 l/ha (converted). After the treatment, the pots are placed in a greenhouse and kept under good growth conditions for the trial plants. After about 3 weeks, the effect of the preparations is scored visually in comparison with untreated controls as percentages. For example, 100% activity=the plants have died, 0% activity=like control plants.

[2] = system: Pharbitis purpurea (PHBPU); test: Pre-emergence herbicidal action; settings: 320 g/ha, visual scoring after about 3 weeks vs untreated controls, 100% = plants have died
Text: as §1, §2

Veronica persica (VERPE) [3] = test: Pre-emergence herbicidal action; settings: 320 g/ha, visual scoring after about 3 weeks vs untreated controls, 100% = plants have died
Text: as §1, §2

[4] = system: Abutilon theophrasti (ABUTH); test: Pre-emergence herbicidal action; settings: 320 g/ha, visual scoring after about 3 weeks vs untreated controls, 100% = plants have died
Text: as §1, §2

[5] = system: Amaranthus retroflexus (AMARE); test: Pre-emergence herbicidal action; settings: 320 g/ha, visual scoring after about 3 weeks vs untreated controls, 100% = plants have died
Text: as §1, §2

[6] = system: Lolium rigidum Gaudin (LOLRI); test: Pre-emergence herbicidal action; settings: 320 g/ha, visual scoring after about 3 weeks vs untreated controls, 100% = plants have died
Text: as §1, §2

[7] = system: Echinochloa crus-galli (ECHCG); test: Pre-emergence herbicidal action; settings: for Herbicidal action against ECHCG: 80 g of a.i./ha, comparative test
Text: as §1, §2
(§3) The compounds according to the invention were tested by the post-emergence and pre-emergence methods under the conditions described above for comparative purposes with the structurally closest compounds known from WO 2005/089551 A1 (D1).

[8] = system: Alopecurus myosuroides (ALOMY); test: Pre-emergence herbicidal action; settings: for Herbicidal action against ALOMY: 80 g of a.i./ha, comparative test; for Pre-emergence action ALOMY: 320 g/ha, visual scoring after about 3 weeks vs untreated controls, 100% = plants have died
Text: as §1, §2, §3

[9] = system: Polygonum convolvulus (POLCO); test: Pre-emergence herbicidal action; settings: for Herbicidal action against POLCO: 80 g of a.i./ha, comparative test
Text: as §1, §2, §3

Stellaria media (STEME) [10] = test: Pre-emergence herbicidal action; settings: for Pre-emergence action STEME: 320 g/ha, visual scoring after about 3 weeks vs untreated controls, 100% = plants have died
Text: as §1, §2, §3

[11] = system: Matricaria inodora (MATIN); test: Pre-emergence herbicidal action; settings: for Herbicidal action against MATIN: 80 g of a.i./ha, comparative test; for Pre-emergence action MATIN: 320 g/ha, visual scoring after about 3 weeks vs untreated controls, 100% = plants have died
Text: as §1, §2, §3

Setaria viridis (SETVI) [12] = test: Pre-emergence herbicidal action; settings: for Herbicidal action against SETVI: 80 g of a.i./ha, comparative test; for Pre-emergence action SETVI: 320 g/ha, visual scoring after about 3 weeks vs untreated controls, 100% = plants have died
Text: as §1, §2, §3

Viola tricolor (VIOTR) [13] = test: Pre-emergence herbicidal action; settings: for Herbicidal action against VIOTR: 80 g of a.i./ha, comparative test; for Pre-emergence action VIOTR: 320 g/ha, visual scoring after about 3 weeks vs untreated controls, 100% = plants have died
Text: as §1, §2, §3

[14] = system: Echinochloa crus-galli (ECHCG); test: Post-emergence herbicidal action; settings: for Post-emergence action ECHCG: 320 g/ha, visual rating after about 3 weeks vs untreated controls, 100% = plants have died
Description: (§4) Seeds of monocotyledonous and dicotyledonous weeds and crop plants are placed in sandy loam in plastic or organic plant pots, covered with soil and cultivated in a greenhouse under controlled growth conditions. 2 to 3 weeks after sowing, the test plants are treated at the one-leaf stage. The compounds of the invention, formulated in the form of wettable powders (WP) or as emulsion concentrates (EC), are then sprayed onto the green parts of the plants as aqueous suspension or emulsion with addition of 0.5% additive at a water application rate of 600 l/ha (converted). After the test plants have been kept in the greenhouse under optimum growth conditions for about 3 weeks, the activity of the preparations is rated visually in comparison to untreated controls. For example, 100% activity=the plants have died, 0% activity=like control plants.
as §1, §3

[15] = system: Alopecurus myosuroides (ALOMY); test: Post-emergence herbicidal action
Description: as §4, §1, §3

Stellaria media (STEME) [16] = test: Post-emergence herbicidal action; settings: 320 g/ha, visual rating after about 3 weeks vs untreated controls, 100% = plants have died
Description: as §4, §1, §3

[17] = system: Matricaria inodora (MATIN); test: Post-emergence herbicidal action
Description: as §4, §1, §3

Setaria viridis (SETVI) [18] = test: Post-emergence herbicidal action; settings: for Post-emergence action SETVI: 320 g/ha, visual rating after about 3 weeks vs untreated controls, 100% = plants have died
Description: as §4, §1, §3

Veronica persica (VERPE) [19] = test: Post-emergence herbicidal action; settings: 320 g/ha, visual rating after about 3 weeks vs untreated controls, 100% = plants have died
Description: as §4, §1

[20] = system: Amaranthus retroflexus (AMARE); test: Post-emergence herbicidal action; settings: 320 g/ha, visual rating after about 3 weeks vs untreated controls, 100% = plants have died
Description: as §4, §1

Viola tricolor (VIOTR) [21] = test: Post-emergence herbicidal action; settings: 320 g/ha, visual rating after about 3 weeks vs untreated controls, 100% = plants have died
Description: as §4, §1

[22] = system: Abutilon theophrasti (ABUTH); test: Post-emergence herbicidal action; settings: 320 g/ha, visual rating after about 3 weeks vs untreated controls, 100% = plants have died
Description: as §4, §1, §3

[23] = system: Lolium multiflorum (LOLMU); test: Post-emergence herbicidal action; settings: 320 g/ha, visual rating after about 3 weeks vs untreated controls, 100% = plants have died
Description: as §4, §1, §3

Avena fatua (AVEFA) = test: Post-emergence herbicidal action; settings: 320 g/ha, visual rating after about 3 weeks vs untreated controls, 100% = plants have died
Description: as §4, §1, §3

[24] = system: harmful plants such as Abutilon theophrasti, Alopecurus myosuroides, Amaranthus retroflexus, Avena fatua, Echinochloa crus-galli, Matricaria inodora, Pharbitis …; test: Post-emergence herbicidal action, summary in text; settings: post-emergence treatment
Description: as §4
In this case, for example, in the post-emergence process, the compounds No. 1-001 and 111-001 have very good herbicidal activity (80% to 100% herbicidal action) against harmful plants such as Abutilon theophrasti, Alopecurus myosuroides, Amaranthus retroflexus, Avena fatua, Echinochloa crus-galli, Matricaria inodora, Pharbitis purpurea, Setaria viridis, Stellaria media, Veronica persica and Viola tricolor at an application rate of 0.32 kg of active substance or less per hectare. At the same time, some compounds according to the invention leave graminaceous crops such as barley, wheat, rye, millet/sorghum, maize, rice or sugarcane virtually undamaged when applied by the post-emergence method, even at high active compound dosages. Some substances are additionally also benign to dicotyledonous crops such as soya, cotton, oilseed rape or sugarbeet.

[25] = 320 g/ha, visual scoring after about 3 weeks vs untreated controls, 100% = plants have died
[26] = 80 g of a.i./ha, comparative test
[27] = 320 g/ha, visual rating after about 3 weeks vs untreated controls, 100% = plants have died

Compound	Pre-emergence action PHBPU [2] [%]	Pre-emergence action VERPE (Veronica persica (VERPE) [3]) [%]	Pre-emergence action AMARE [5] [%]	Herbicidal action against ECHCG [7] [%]	Herbicidal action against ALOMY [8] [%]	Pre-emergence action ALOMY [8] [%]	Herbicidal action against POLCO [9] [%]	Pre-emergence action STEME (Stellaria media (STEME) [10]) [%]	Herbicidal action against MATIN [11] [%]	Pre-emergence action MATIN [11] [%]	Herbicidal action against SETVI (Setaria viridis (SETVI) [12]) [%]	Pre-emergence action SETVI (Setaria viridis (SETVI) [12]) [%]	Herbicidal action against VIOTR (Viola tricolor (VIOTR) [13]) [%]	Pre-emergence action VIOTR (Viola tricolor (VIOTR) [13]) [%]	Post-emergence action ECHCG [14] [%]	Post-emergence action STEME (Stellaria media (STEME) [16]) [%]	Post-emergence action SETVI (Setaria viridis (SETVI) [18]) [%]	Post-emergence action VERPE (Veronica persica (VERPE) [19]) [%]	Post-emergence action AMARE [20] [%]	Post-emergence action VIOTR (Viola tricolor (VIOTR) [21]) [%]	further results
FC(F)(F)Oc1cccc(Oc2nc(C3CC3)cc(-n3cc(C(F)(F)F)cn3)n2)c1 [II-004]	80	100	100	30	70	90	50	100	80	100	100	100	100	100	90	80	90	90	90	90	Pre-emergence action DIGSA [1]: 100%; Pre-emergence action ABUTH [4]: 80%; Pre-emergence action LOLRI [6]: 90%; Pre-emergence action POLCO [9, 25]: 90%; Herbicidal action against STEME (Stellaria media (STEME) [10]; [26]): 70%; Herbicidal action against ECHCG [14, 26]: 40%; Herbicidal action against ALOMY [15, 26]: 50%; Post-emergence action ALOMY [15, 27]: 80%; Herbicidal action against MATIN [17, 26]: 40%; Herbicidal action against SETVI (Setaria viridis (SETVI) [18]; [26]): 50%
FC(F)(F)c1cccc(Oc2nc(C3CC3)cc(-n3cc(C(F)(F)F)cn3)n2)c1 [II-001]	80	90	90	80	60	100	20	90	80	100	90	100	90	90	80	90	80	100	90	100	Pre-emergence action ECHCG [7, 25]: 80%; Post-emergence action ABUTH [22]: 90%; Post-emergence action LOLMU [23]: 70%; Post-emergence action MATIN [17, 27]: 80%; Post-emergence action AVEFA (Avena fatua (AVEFA)): 50%; herbicidal action against harmful plants (in words) [24]: good herbicidal action

From US12509445B2, “Herbicidally active 4-cyclopropyl-6-[4-(trifluormethyl)pyrazol-1-yl)]pyrimidines” (Bayer Aktiengesellschaft, priority 2019, dated 2025)
